Reference: PubChem BioAssay (NCI)
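Test compounds were applied to cells in 96-well plates for 48 hours at 5 doses. GI50: concentration for 50% inhibition of growth. TGI is the concentration that stops growth completely.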

Tests used:
Assay in all cases: growth of human tumour cells (NCI), 48 h
A498 renal = tested on: A498 renal
A549 NSCLC = tested on: A549 NSCLC
HT29 colon = tested on: HT29 colon
M14 melanoma = tested on: M14 melanoma
NCI-H23 lung = tested on: NCI-H23 lung
OVCAR-5 ovarian = tested on: OVCAR-5 ovarian
OVCAR-8 ovarian = tested on: OVCAR-8 ovarian
SK-MEL-5 melanoma = tested on: SK-MEL-5 melanoma
SNB-19 CNS = tested on: SNB-19 CNS
UO-31 renal = tested on: UO-31 renal

CC(=O)CC(=O)N1CCSC1=S
TGI (A498 renal): > 10 µM | TGI (A549 NSCLC): > 10 µM | TGI (HT29 colon): > 10 µM | TGI (M14 melanoma): > 10 µM | TGI (NCI-H23 lung): > 10 µM | TGI (OVCAR-5 ovarian): > 10 µM | TGI (OVCAR-8 ovarian): > 10 µM | TGI (SK-MEL-5 melanoma): > 10 µM | TGI (SNB-19 CNS): > 10 µM | TGI (UO-31 renal): > 10 µM

COc1cc2nc(N3CCC[C@H](NC4=CC(=O)c5ccccc5C4=O)C3)nc(N)c2cc1OC
GI50 (A498 renal): 11.8 µM | TGI (A498 renal): 34 µM | GI50 (A549 NSCLC): 2.23 µM | TGI (A549 NSCLC): 4 µM | GI50 (HT29 colon): 2.02 µM | TGI (HT29 colon): 4.07 µM | GI50 (NCI-H23 lung): 1.99 µM | TGI (NCI-H23 lung): 4.13 µM | GI50 (OVCAR-5 ovarian): 2.05 µM | TGI (OVCAR-5 ovarian): 4 µM | GI50 (OVCAR-8 ovarian): 2.06 µM | TGI (OVCAR-8 ovarian): 4.28 µM | GI50 (SK-MEL-5 melanoma): 1.73 µM | TGI (SK-MEL-5 melanoma): 3.26 µM | GI50 (UO-31 renal): 1.49 µM | TGI (UO-31 renal): 3.16 µM

O=CC(O)C(O)C(O)C(O)COC(=O)NCCCCC(=O)C(F)(F)C(F)(F)C(F)(F)C(F)(F)C(F)(F)C(F)(F)C(F)(F)F (stereo not given)
TGI (A498 renal): 47.5 µM | TGI (A549 NSCLC): > 100 µM | TGI (HT29 colon): > 100 µM | TGI (M14 melanoma): 60.2 µM | TGI (NCI-H23 lung): > 100 µM | TGI (OVCAR-5 ovarian): 33.8 µM | TGI (SK-MEL-5 melanoma): 86.8 µM | TGI (SNB-19 CNS): 31.8 µM | TGI (UO-31 renal): > 100 µM

CC(C)(C)c1cc(OCc2nnc3sc(Cc4ccccc4)nn23)c(Cl)cc1OCc1nnc2sc(Cc3ccccc3)nn12
TGI (A498 renal): 67.2 µM | TGI (A549 NSCLC): > 100 µM | TGI (HT29 colon): 57.8 µM | TGI (M14 melanoma): 88 µM | TGI (NCI-H23 lung): > 100 µM | TGI (OVCAR-5 ovarian): > 100 µM | TGI (OVCAR-8 ovarian): 73.6 µM | TGI (SK-MEL-5 melanoma): 31.7 µM | TGI (SNB-19 CNS): > 100 µM | TGI (UO-31 renal): > 100 µM

Cc1cc(C)c2c(c1)C/C(=C\c1cccc(C)c1C(=O)O)C2=O
TGI (A498 renal): > 100 µM | TGI (A549 NSCLC): > 100 µM | TGI (HT29 colon): > 100 µM | TGI (M14 melanoma): > 100 µM | TGI (NCI-H23 lung): > 100 µM | TGI (OVCAR-5 ovarian): > 100 µM | TGI (OVCAR-8 ovarian): > 100 µM | TGI (SK-MEL-5 melanoma): > 100 µM | TGI (SNB-19 CNS): > 100 µM | TGI (UO-31 renal): > 100 µM

COc1cc(S(=O)(=O)Nc2ccc(-c3csc(N4C(=O)C(Cl)C4c4ccccc4O)n3)cc2)ccc1Cl (stereo not given)
TGI (A498 renal): 0.948 µM | TGI (A549 NSCLC): > 100 µM | TGI (HT29 colon): > 100 µM | TGI (M14 melanoma): > 100 µM | TGI (NCI-H23 lung): 80.5 µM | TGI (OVCAR-5 ovarian): > 100 µM | TGI (OVCAR-8 ovarian): > 100 µM | TGI (SK-MEL-5 melanoma): > 100 µM | TGI (SNB-19 CNS): > 100 µM | TGI (UO-31 renal): > 100 µM

CCOC(=O)CCc1cn2cc(Br)nc(OC)c2n1
TGI (A549 NSCLC): > 100 µM | TGI (HT29 colon): > 100 µM | TGI (M14 melanoma): > 100 µM | TGI (NCI-H23 lung): > 100 µM | TGI (OVCAR-8 ovarian): > 100 µM | TGI (SK-MEL-5 melanoma): > 100 µM | TGI (SNB-19 CNS): > 100 µM | TGI (UO-31 renal): 58.5 µM

c1ccc2c[n+](CCCC[n+]3ccc4ccccc4c3)ccc2c1
TGI (A498 renal): > 100 µM | TGI (A549 NSCLC): > 100 µM | TGI (HT29 colon): > 100 µM | TGI (M14 melanoma): > 100 µM | TGI (NCI-H23 lung): > 100 µM | TGI (OVCAR-5 ovarian): > 100 µM | TGI (OVCAR-8 ovarian): > 100 µM | TGI (SK-MEL-5 melanoma): > 100 µM | TGI (SNB-19 CNS): > 100 µM

O=c1cc(N2CCOCC2)n2c(ccc3ccccc32)n1
TGI (A498 renal): > 100 µM | TGI (A549 NSCLC): > 100 µM | TGI (HT29 colon): > 100 µM | TGI (M14 melanoma): > 100 µM | TGI (NCI-H23 lung): > 100 µM | TGI (OVCAR-5 ovarian): > 100 µM | TGI (OVCAR-8 ovarian): > 100 µM | TGI (SK-MEL-5 melanoma): > 100 µM | TGI (SNB-19 CNS): > 100 µM | TGI (UO-31 renal): > 100 µM

C/C(=N\Nc1nc2ccccc2[nH]1)c1ncccn1
TGI (A498 renal): 2.23 µM | TGI (A549 NSCLC): > 93 µM | TGI (M14 melanoma): 0.322 µM | TGI (NCI-H23 lung): 8.58 µM | TGI (OVCAR-5 ovarian): > 100 µM | TGI (OVCAR-8 ovarian): > 39 µM | TGI (SK-MEL-5 melanoma): 1.34 µM | TGI (SNB-19 CNS): > 100 µM

O=[N+]([O-])c1ccc(N2N=C(c3c(O)ccc4ccccc34)CC2c2ccc(Cl)cc2)c([N+](=O)[O-])c1 (stereo not given)
TGI (A498 renal): 63.9 µM | TGI (A549 NSCLC): 88.1 µM | TGI (HT29 colon): 67 µM | TGI (M14 melanoma): 71 µM | TGI (NCI-H23 lung): > 100 µM | TGI (OVCAR-5 ovarian): > 100 µM | TGI (OVCAR-8 ovarian): > 100 µM | TGI (SK-MEL-5 melanoma): 39.1 µM | TGI (UO-31 renal): > 100 µM

COc1cccc2c1OC1c3ccccc3OCC1(O)C2 (stereo not given)
TGI (A498 renal): > 100 µM | TGI (A549 NSCLC): > 100 µM | TGI (HT29 colon): > 100 µM | TGI (M14 melanoma): > 100 µM | TGI (NCI-H23 lung): > 100 µM | TGI (OVCAR-5 ovarian): > 100 µM | TGI (OVCAR-8 ovarian): > 100 µM | TGI (SK-MEL-5 melanoma): > 100 µM | TGI (UO-31 renal): > 100 µM

Oc1ccc(Cl)cc1-c1cc(-c2ccccc2)nc(=S)[nH]1
TGI (A498 renal): > 100 µM | TGI (A549 NSCLC): > 100 µM | TGI (HT29 colon): > 100 µM | TGI (M14 melanoma): > 100 µM | TGI (NCI-H23 lung): > 100 µM | TGI (OVCAR-5 ovarian): > 100 µM | TGI (OVCAR-8 ovarian): > 100 µM | TGI (SK-MEL-5 melanoma): > 100 µM | TGI (SNB-19 CNS): > 100 µM | TGI (UO-31 renal): 68.9 µM

Cn1c2ccc(Cl)cc2c2ccc3c(c21)C(=O)C=CC3=O
TGI (A498 renal): > 10 µM | TGI (A549 NSCLC): > 10 µM | TGI (HT29 colon): > 10 µM | TGI (M14 melanoma): > 10 µM | TGI (NCI-H23 lung): > 10 µM | TGI (OVCAR-5 ovarian): > 10 µM | TGI (OVCAR-8 ovarian): > 10 µM | TGI (SK-MEL-5 melanoma): > 10 µM | TGI (SNB-19 CNS): > 10 µM

S=C1C(=Nc2ccccc2)N(c2ccccc2)/C(=N\c2cccc[n+]2Cc2ccccc2)N1c1ccccc1
TGI (A549 NSCLC): 52.7 µM | TGI (HT29 colon): 43 µM | TGI (M14 melanoma): 27.5 µM | TGI (NCI-H23 lung): 35.4 µM | TGI (OVCAR-5 ovarian): 32.7 µM | TGI (OVCAR-8 ovarian): 38.7 µM | TGI (SK-MEL-5 melanoma): 26.7 µM | TGI (SNB-19 CNS): 34.8 µM | TGI (UO-31 renal): 42.8 µM

Cc1c(OCc2cccc3ccccc23)ccc2c(=O)cc(SCCN3CCOCC3)oc12
TGI (A498 renal): > 100 µM | TGI (A549 NSCLC): > 100 µM | TGI (HT29 colon): > 100 µM | TGI (M14 melanoma): > 100 µM | TGI (NCI-H23 lung): > 100 µM | TGI (OVCAR-5 ovarian): > 100 µM | TGI (OVCAR-8 ovarian): > 100 µM | TGI (SK-MEL-5 melanoma): > 100 µM | TGI (SNB-19 CNS): > 100 µM | TGI (UO-31 renal): > 100 µM

COC(=O)/C=C\n1nc(Br)c(=O)[nH]c1=O
TGI (A498 renal): > 100 µM | TGI (A549 NSCLC): > 100 µM | TGI (HT29 colon): > 100 µM | TGI (M14 melanoma): > 100 µM | TGI (NCI-H23 lung): > 100 µM | TGI (OVCAR-5 ovarian): > 100 µM | TGI (OVCAR-8 ovarian): > 100 µM | TGI (SK-MEL-5 melanoma): > 100 µM | TGI (SNB-19 CNS): > 100 µM | TGI (UO-31 renal): > 100 µM

COc1cccc(C(C#N)NNC(=O)c2c(Cl)c(Cl)c(Cl)c(Cl)c2-c2nc3ccc(C(=O)c4ccccc4)cc3[nH]2)c1O (stereo not given)
TGI (A498 renal): 7.29 µM | TGI (A549 NSCLC): > 100 µM | TGI (HT29 colon): > 100 µM | TGI (M14 melanoma): 25.1 µM | TGI (NCI-H23 lung): > 100 µM | TGI (OVCAR-5 ovarian): 70.1 µM | TGI (OVCAR-8 ovarian): > 100 µM | TGI (SK-MEL-5 melanoma): 10.5 µM | TGI (SNB-19 CNS): 24.7 µM | TGI (UO-31 renal): > 100 µM

CSc1nnc(SCc2nn3c(=O)cc(C)nc3s2)s1
TGI (A498 renal): > 100 µM | TGI (A549 NSCLC): > 100 µM | TGI (HT29 colon): > 100 µM | TGI (M14 melanoma): > 100 µM | TGI (NCI-H23 lung): > 100 µM | TGI (OVCAR-5 ovarian): > 100 µM | TGI (OVCAR-8 ovarian): > 100 µM | TGI (SK-MEL-5 melanoma): > 100 µM | TGI (SNB-19 CNS): > 100 µM | TGI (UO-31 renal): > 100 µM

Cc1nc2ccc(Br)cc2c(=O)n1-c1ccc(N)cc1
TGI (A498 renal): > 100 µM | TGI (A549 NSCLC): > 100 µM | TGI (HT29 colon): > 100 µM | TGI (M14 melanoma): > 100 µM | TGI (OVCAR-5 ovarian): > 100 µM | TGI (OVCAR-8 ovarian): > 100 µM | TGI (SK-MEL-5 melanoma): > 100 µM | TGI (SNB-19 CNS): > 100 µM | TGI (UO-31 renal): > 100 µM

Cc1ccc(N=C/C=C(\Nc2ccc(C)cc2)c2ccc3ccccc3c2)cc1
TGI (A498 renal): 24.2 µM | TGI (A549 NSCLC): 13.2 µM | TGI (HT29 colon): 2.32 µM | TGI (M14 melanoma): 8.69 µM | TGI (NCI-H23 lung): 3.9 µM | TGI (OVCAR-5 ovarian): 6.24 µM | TGI (OVCAR-8 ovarian): > 100 µM | TGI (SK-MEL-5 melanoma): 12 µM | TGI (SNB-19 CNS): 15.4 µM | TGI (UO-31 renal): 13.1 µM
